Assay results as given in paper PMC13252604, “First Generation Proteolysis Targeting Chimeras (PROTACs) for the Treatment of Progeria” (Advanced Science, 2026).

Legend:
[1] = Parallel artificial membrane permeability assay (PAMPA); assay type: in vitro ADME; details: read-out: P, permeability
Procedure: Pharmacokinetic properties, including solubility and membrane permeability, are critical in drug discovery but can pose challenges in PROTAC development […] The calculated logarithm of the partition coefficient between n‐octanol and water (clogP), determined using ACDLabs Percepta Software, indicated an acceptable lipophilicity for PROTAC 2 (clogP = 3.94), aligning with Lipinski's “rule of 5” (clogP<5). […] Compound permeability was assessed using the parallel artificial membrane permeability assay (PAMPA), which measures the ability of compounds to diffuse through a lipid‐infused artificial membrane. […] The cellular uptake of compound 2 was further confirmed by fluorescence microscopy, leveraging the intrinsic fluorescence of pomalidomide‐bearing derivatives (Figure S4).

[2] = Stability in cell culture; assay type: in vitro ADME
From the text: TABLE 1 Pharmacokinetic parameters of PROTAC 2. | column: Stability (hours) ^b / Cell culture

Compound: CC1(C)Oc2cc3oc(=O)ccc3cc2C[C@@H]1OC(=O)CCCCCNc1cccc2c1C(=O)N(C1CCC(=O)NC1=O)C2=O (some centres unmarked) [compound 2]
- Papp [1]: 67 nm/s
- Stability (hours) Cell culture [2]: >24 h
